Assay results reported in ChEMBL document CHEMBL4004859, “Synthesis, antimalarial activity, heme binding and docking studies of N-substituted 4-aminoquinoline-pyrimidine molecular hybrids” (Eur J Med Chem, 2017).
Active and inactive are the calls of the source. The rule behind the calls is not given here.

What was measured:
[1] = Selectivity index, ratio of IC50 for African green monkey Vero cells to IC50 for chloroquine-sensitive Plasmodium falciparum D6 infected in red blood cells; type: toxicity, cell-based; conditions: read-out: Ratio IC50
Plasmodium falciparum [2] = test: Antimalarial activity against chloroquine-sensitive Plasmodium falciparum D6 infected in red blood cells after 72 hrs by Malstat reagent based LDH assay; type: functional, cell-based; conditions: D6, 72 h
[3] = Resistance index, ratio of IC50 for Plasmodium falciparum W2 infected in red blood cells to IC50 for Plasmodium falciparum D6 infected in red blood cells; type: functional
[4] = Selectivity index, ratio of IC50 for African green monkey Vero cells to IC50 for chloroquine-resistant Plasmodium falciparum W2 infected in red blood cells; type: toxicity, cell-based; conditions: read-out: Ratio IC50
Vero = test: Cytotoxicity against African green monkey Vero cells assessed as reduction in cell viability up to 10 uM after 48 hrs by neutral red assay; type: cell-based; conditions: chlorocebus sabaeus
Plasmodium falciparum [5] = test: Antimalarial activity against chloroquine-resistant Plasmodium falciparum W2 infected in red blood cells after 72 hrs by Malstat reagent based LDH assay; type: functional, cell-based; conditions: W2, 72 h
Heme [6] = test: Binding affinity to monomeric heme (unknown origin) assessed as mole fraction of compound required to show 1:1 stoichiometry for heme-compound complex at pH 5.6 to 7.4 by Job's plot method
mu-oxodimeric heme [7] = test: Binding affinity to mu-oxodimeric heme (unknown origin) in aqueous NaOH solution assessed as 1:1 stoichiometry for heme-compound complex at pH 5.8 by Job's plot method
Heme [8] = test: Binding affinity to monomeric heme (unknown origin) in DMSO/water solution up to 40 uM at pH 5.6 by titration-based UV-vis spectrophotometric analysis
mu-oxodimeric heme [9] = test: Binding affinity to mu-oxodimeric heme (unknown origin) in aqueous NaOH solution up to 15 uM at pH 5.8 by titration-based UV-vis spectrophotometric analysis
Plasmodium falciparum [10] = test: Antimalarial activity against chloroquine-resistant Plasmodium falciparum W2 infected in red blood cells up to 10 uM after 72 hrs by Malstat reagent based LDH assay; type: functional, cell-based

| SMILES | selectivity ratio [1] | IC50 (Plasmodium falciparum [2]) [nM] | Ratio IC50 [3] | selectivity ratio [4] | Activity (Vero) | IC50 (Plasmodium falciparum [5]) [nM] | Activity (mole fraction) (Heme [6]) | Activity (mu-oxodimeric heme [7]) | Activity (Heme [8]) | Activity (mu-oxodimeric heme [9]) | Activity (Plasmodium falciparum [10]) |
| --- | --- | --- | --- | --- | --- | --- | --- | --- | --- | --- | --- |
| Cc1cc(N2CCOCC2)nc(N(CCNc2ccnc3cc(Cl)ccc23)Cc2ccco2)n1 | > 233 | 43 | 1.46 | > 159 | Non-Toxic | 63 | – | – | – | – | – |
| Cc1cc(N(CCCNc2ccnc3cc(Cl)ccc23)Cc2ccco2)nc(Cl)n1 | > 92.6 | 108 | 4.2 | > 22 | Non-Toxic | 454 | – | – | – | – | – |
| CCN1CCN(c2cc(C)nc(N(CCNc3ccnc4cc(Cl)ccc34)Cc3ccco3)n2)CC1 | > 238 | 42 | 1.11 | > 213 | Non-Toxic | 47 | – | – | – | – | – |
| Cc1cc(N(CCCNc2ccnc3cc(Cl)ccc23)Cc2ccco2)nc(N2CCOCC2)n1 | > 217 | 46 | 5.58 | > 38.9 | Non-Toxic | 257 | – | – | – | – | – |
| Cc1cc(N(CCNc2ccnc3cc(Cl)ccc23)Cc2ccco2)nc(N2CCN(C)CC2)n1 | > 244 | 41 | 1 | > 244 | Non-Toxic | 41 | – | – | – | – | – |
| Cc1cc(N(CCCNc2ccnc3cc(Cl)ccc23)Cc2ccco2)nc(N2CCCCC2)n1 | > 233 | 43 | 1.67 | > 139 | Non-Toxic | 72 | – | – | – | – | – |
| Cc1cc(N2CCCC2)nc(N(CCCNc2ccnc3cc(Cl)ccc23)Cc2ccco2)n1 | > 196 | 51 | 3.17 | > 61.7 | Non-Toxic | 162 | – | – | – | – | – |
| CCN1CCN(c2cc(C)nc(N(CCCNc3ccnc4cc(Cl)ccc34)Cc3ccco3)n2)CC1 | > 250 | 40 | 0.975 | > 256 | Non-Toxic | 39 | – | – | – | – | – |
| CCN(CC)CCCC(C)Nc1ccnc2cc(Cl)ccc12 (stereo not drawn) [CHLOROQUINE] | – | – | – | – | Non-Toxic | – | – | – | – | – | – |
| CCN1CCN(c2nc(C)cc(N(CCCNc3ccnc4cc(Cl)ccc34)Cc3ccco3)n2)CC1 | > 222 | 44 | 0.977 | > 233 | Non-Toxic | 43 | – | – | – | – | – |
| Cc1cc(N2CCCCC2)nc(N(CCNc2ccnc3cc(Cl)ccc23)Cc2ccco2)n1 | > 222 | 44 | 4.63 | > 49 | Non-Toxic | 204 | – | – | – | – | – |
| Cc1cc(N2CCCC2)nc(N(CCNc2ccnc3cc(Cl)ccc23)Cc2ccco2)n1 | > 167 | 60 | 3.23 | > 51.5 | Non-Toxic | 194 | – | – | – | – | – |
| CCN1CCN(c2nc(C)cc(N(CCNc3ccnc4cc(Cl)ccc34)Cc3ccco3)n2)CC1 | > 263 | 38 | 1.05 | > 250 | Non-Toxic | 40 | 0.5 | Active | Active | Active | – |
| Cc1cc(N2CCCCC2)nc(N(CCCNc2ccnc3cc(Cl)ccc23)Cc2ccco2)n1 | > 169 | 59 | 3.33 | > 50.8 | Non-Toxic | 197 | – | – | – | – | – |
| Cc1cc(N(CCCNc2ccnc3cc(Cl)ccc23)Cc2ccco2)nc(N2CCN(C)CC2)n1 | > 206 | 45 | 1.04 | > 213 | Non-Toxic | 47 | – | – | – | – | – |
| Cc1cc(N(CCNc2ccnc3cc(Cl)ccc23)Cc2ccco2)nc(N2CCOCC2)n1 | > 182 | 55 | 2.21 | > 82 | Non-Toxic | 122 | – | – | – | – | – |
| Cc1cc(N(CCNc2ccnc3cc(Cl)ccc23)Cc2ccco2)nc(Cl)n1 | > 156 | 64 | 1.17 | > 133 | Non-Toxic | 75 | – | – | – | – | – |
| Cc1cc(Cl)nc(N(CCNc2ccnc3cc(Cl)ccc23)Cc2ccco2)n1 | > 125 | 80 | 0.775 | > 161 | Non-Toxic | 62 | – | – | – | – | – |
| Cc1cc(N2CCOCC2)nc(N(CCCNc2ccnc3cc(Cl)ccc23)Cc2ccco2)n1 | > 189 | 53 | 3.15 | > 59.9 | Non-Toxic | 167 | – | – | – | – | – |
| Cc1cc(N2CCN(C)CC2)nc(N(CCNc2ccnc3cc(Cl)ccc23)Cc2ccco2)n1 | > 238 | 42 | 1 | > 238 | Non-Toxic | 42 | – | – | – | – | – |
| Cc1cc(Cl)nc(N(CCCNc2ccnc3cc(Cl)ccc23)Cc2ccco2)n1 | > 29.7 | 337 | 1.5 | > 19.8 | Non-Toxic | 506 | – | – | – | – | – |
| Cc1cc(N(CCNc2ccnc3cc(Cl)ccc23)Cc2ccco2)nc(N2CCCCC2)n1 | > 164 | 61 | 3.26 | > 50.2 | Non-Toxic | 199 | – | – | – | – | – |
| Cc1cc(N2CCN(C)CC2)nc(N(CCCNc2ccnc3cc(Cl)ccc23)Cc2ccco2)n1 | > 204 | 49 | 0.979 | > 208 | Non-Toxic | 48 | – | – | – | – | – |
| CCc1nc(N)nc(N)c1-c1ccc(Cl)cc1 [PYRIMETHAMINE] | > 1110 | – | – | – | Non-Toxic | – | – | – | – | – | inactive |
| Cc1cc(N(CCNc2ccnc3cc(Cl)ccc23)Cc2ccco2)nc(N2CCCC2)n1 | > 200 | 50 | 3.26 | > 61.3 | Non-Toxic | 163 | – | – | – | – | – |
| Cc1cc(N(CCCNc2ccnc3cc(Cl)ccc23)Cc2ccco2)nc(N2CCCC2)n1 | > 222 | 44 | 1.72 | > 132 | Non-Toxic | 76 | – | – | – | – | – |
| C[C@@H]1CC[C@H]2[C@@H](C)C(=O)O[C@@H]3O[C@@]4(C)CC[C@@H]1[C@]32OO4 [ARTEMISININ] | > 222 | 45 | 0.511 | 435 | Non-Toxic | 23 | – | – | – | – | – |
